Experimental data published in PubChem BioAssay (NCI).
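Interpolation was linear, between the two tested concentrations surrounding the appropriate level; five concentrations were tested over 48 hours in 96-well plates. TGI: total growth inhibition.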

Experiments:
Assay in all cases: NCI anticancer screen, dose series, 48 h
786-0 renal = tested on: 786-0 renal
A498 renal = tested on: A498 renal
A549 NSCLC = tested on: A549 NSCLC
ACHN renal = tested on: ACHN renal
COLO 205 colon = tested on: COLO 205 colon
DU-145 prostate = tested on: DU-145 prostate
EKVX NSCLC = tested on: EKVX NSCLC
HCC-2998 colon = tested on: HCC-2998 colon
HCT-116 colon = tested on: HCT-116 colon
HCT-15 colon = tested on: HCT-15 colon
HOP-62 NSCLC = tested on: HOP-62 NSCLC
HOP-92 NSCLC = tested on: HOP-92 NSCLC
HS 578T breast = tested on: HS 578T breast
HT29 colon = tested on: HT29 colon
IGROV1 ovarian = tested on: IGROV1 ovarian
KM12 colon = tested on: KM12 colon
M14 melanoma = tested on: M14 melanoma
MCF7 breast = tested on: MCF7 breast
MDA-MB-231 breast = tested on: MDA-MB-231 breast
MDA-MB-435 = tested on: MDA-MB-435
MDA-N = tested on: MDA-N
MOLT-4 leukemia = tested on: MOLT-4 leukemia
NCI-H226 lung = tested on: NCI-H226 lung
NCI-H23 lung = tested on: NCI-H23 lung
NCI-H460 lung = tested on: NCI-H460 lung
NCI/ADR-RES ovarian = tested on: NCI/ADR-RES ovarian
OVCAR-3 ovarian = tested on: OVCAR-3 ovarian
OVCAR-4 ovarian = tested on: OVCAR-4 ovarian
OVCAR-5 ovarian = tested on: OVCAR-5 ovarian
OVCAR-8 ovarian = tested on: OVCAR-8 ovarian
RPMI-8226 leukemia = tested on: RPMI-8226 leukemia
RXF 393 renal = tested on: RXF 393 renal
SF-268 CNS = tested on: SF-268 CNS
SF-295 CNS = tested on: SF-295 CNS
SF-539 CNS = tested on: SF-539 CNS
SK-MEL-2 melanoma = tested on: SK-MEL-2 melanoma
SK-MEL-28 melanoma = tested on: SK-MEL-28 melanoma
SK-MEL-5 melanoma = tested on: SK-MEL-5 melanoma
SK-OV-3 ovarian = tested on: SK-OV-3 ovarian
SN12C renal = tested on: SN12C renal
SNB-19 CNS = tested on: SNB-19 CNS
SNB-75 CNS = tested on: SNB-75 CNS
SW-620 colon = tested on: SW-620 colon
T-47D breast = tested on: T-47D breast
TK-10 renal = tested on: TK-10 renal
U251 CNS = tested on: U251 CNS
UACC-257 melanoma = tested on: UACC-257 melanoma
UACC-62 melanoma = tested on: UACC-62 melanoma
UO-31 renal = tested on: UO-31 renal
CAKI-1 renal = tested on: CAKI-1 renal
CCRF-CEM leukemia = tested on: CCRF-CEM leukemia
HL-60(TB) leukemia = tested on: HL-60(TB) leukemia
LOX IMVI melanoma = tested on: LOX IMVI melanoma
MALME-3M melanoma = tested on: MALME-3M melanoma
PC-3 prostate = tested on: PC-3 prostate
SR leukemia = tested on: SR leukemia

Measured: TGI

O=c1cc(-c2ccncc2)[nH]c2cc3c(cc12)OCO3
> 100 µM: 786-0 renal | A498 renal | A549 NSCLC | ACHN renal | COLO 205 colon | DU-145 prostate | EKVX NSCLC | HCC-2998 colon | HCT-116 colon | HCT-15 colon | HOP-62 NSCLC | HOP-92 NSCLC | HS 578T breast | HT29 colon | IGROV1 ovarian | KM12 colon | M14 melanoma | MCF7 breast | MDA-MB-231 breast | MDA-MB-435 | MDA-N | MOLT-4 leukemia | NCI-H226 lung | NCI-H23 lung | NCI-H460 lung | NCI/ADR-RES ovarian | OVCAR-3 ovarian | OVCAR-4 ovarian | OVCAR-5 ovarian | OVCAR-8 ovarian | RPMI-8226 leukemia | RXF 393 renal | SF-268 CNS | SF-295 CNS | SF-539 CNS | SK-MEL-2 melanoma | SK-MEL-28 melanoma | SK-MEL-5 melanoma | SK-OV-3 ovarian | SN12C renal | SNB-19 CNS | SNB-75 CNS | SW-620 colon | T-47D breast | TK-10 renal | U251 CNS | UACC-257 melanoma | UACC-62 melanoma | UO-31 renal

N#C/C(=C/n1c(=S)[nH]c2ccc([N+](=O)[O-])cc21)C(N)=O
> 100 µM: 786-0 renal | A549 NSCLC | ACHN renal | CAKI-1 renal | CCRF-CEM leukemia | COLO 205 colon | DU-145 prostate | EKVX NSCLC | HCT-116 colon | HCT-15 colon | HL-60(TB) leukemia | HOP-62 NSCLC | HOP-92 NSCLC | HS 578T breast | HT29 colon | IGROV1 ovarian | KM12 colon | LOX IMVI melanoma | M14 melanoma | MALME-3M melanoma | MCF7 breast | MDA-MB-231 breast | MDA-MB-435 | MDA-N | MOLT-4 leukemia | NCI-H226 lung | NCI-H23 lung | NCI-H460 lung | NCI/ADR-RES ovarian | OVCAR-3 ovarian | OVCAR-4 ovarian | OVCAR-5 ovarian | OVCAR-8 ovarian | PC-3 prostate | RPMI-8226 leukemia | RXF 393 renal | SF-268 CNS | SF-295 CNS | SF-539 CNS | SK-MEL-2 melanoma | SK-MEL-28 melanoma | SK-MEL-5 melanoma | SK-OV-3 ovarian | SN12C renal | SNB-19 CNS | SNB-75 CNS | SR leukemia | SW-620 colon | TK-10 renal | U251 CNS | UACC-257 melanoma | UACC-62 melanoma | UO-31 renal
